{"source": "paper PMC10294662", "about": "“Small Molecule Attenuates Bacterial Virulence by Targeting Conserved Response Regulator” (mBio, 2023)", "target": "VicR (Streptococcus mutans, UniProt I6L8Z5)", "sequence (I6L8Z5 entry or part of it)": "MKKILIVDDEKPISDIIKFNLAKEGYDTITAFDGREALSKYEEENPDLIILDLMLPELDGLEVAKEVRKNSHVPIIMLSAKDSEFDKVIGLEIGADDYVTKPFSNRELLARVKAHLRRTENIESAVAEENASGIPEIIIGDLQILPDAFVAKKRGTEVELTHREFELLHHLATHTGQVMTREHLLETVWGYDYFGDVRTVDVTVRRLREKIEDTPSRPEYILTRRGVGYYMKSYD", "experiment": "bio-layer interferometry, biotinylated 2B5 on streptavidin sensors; pulldown of recombinant VicR and VicR-N", "type": "binding", "set-up": "gene covR; recombinant VicR; VicR-N (1 to 125 amino acid residues) also captured, VicR-C (126 to 235) not captured", "data": [{"compound": "CCCCCCCCCCCCCCCCN(CCCCCCc1cn(CCNC(=O)CCCC[C@@H]2SC[C@@H]3NC(=O)N[C@@H]32)nn1)C(=O)CCCc1c[nH]c(N)n1", "note": "[Bio2B5, biotinylated 2B5]", "values": [{"measurement": "Kd", "value": "38 ± 6.3", "unit": "µM"}]}]}
